# Molecular target: MDR1A (P-glycoprotein, ABCB1) (Mus musculus, UniProt P21447)
# Assay: Activity of mouse MDR1A expressed in pig LLC-PK1 cells assessed as efflux ratio of permeability from basolateral to apical side to apical to basolateral side at 1 uM after 2 hrs
# Assay type: ADME, cell-based
# MDR1A (P-glycoprotein, ABCB1), sequence (P21447 whole entry): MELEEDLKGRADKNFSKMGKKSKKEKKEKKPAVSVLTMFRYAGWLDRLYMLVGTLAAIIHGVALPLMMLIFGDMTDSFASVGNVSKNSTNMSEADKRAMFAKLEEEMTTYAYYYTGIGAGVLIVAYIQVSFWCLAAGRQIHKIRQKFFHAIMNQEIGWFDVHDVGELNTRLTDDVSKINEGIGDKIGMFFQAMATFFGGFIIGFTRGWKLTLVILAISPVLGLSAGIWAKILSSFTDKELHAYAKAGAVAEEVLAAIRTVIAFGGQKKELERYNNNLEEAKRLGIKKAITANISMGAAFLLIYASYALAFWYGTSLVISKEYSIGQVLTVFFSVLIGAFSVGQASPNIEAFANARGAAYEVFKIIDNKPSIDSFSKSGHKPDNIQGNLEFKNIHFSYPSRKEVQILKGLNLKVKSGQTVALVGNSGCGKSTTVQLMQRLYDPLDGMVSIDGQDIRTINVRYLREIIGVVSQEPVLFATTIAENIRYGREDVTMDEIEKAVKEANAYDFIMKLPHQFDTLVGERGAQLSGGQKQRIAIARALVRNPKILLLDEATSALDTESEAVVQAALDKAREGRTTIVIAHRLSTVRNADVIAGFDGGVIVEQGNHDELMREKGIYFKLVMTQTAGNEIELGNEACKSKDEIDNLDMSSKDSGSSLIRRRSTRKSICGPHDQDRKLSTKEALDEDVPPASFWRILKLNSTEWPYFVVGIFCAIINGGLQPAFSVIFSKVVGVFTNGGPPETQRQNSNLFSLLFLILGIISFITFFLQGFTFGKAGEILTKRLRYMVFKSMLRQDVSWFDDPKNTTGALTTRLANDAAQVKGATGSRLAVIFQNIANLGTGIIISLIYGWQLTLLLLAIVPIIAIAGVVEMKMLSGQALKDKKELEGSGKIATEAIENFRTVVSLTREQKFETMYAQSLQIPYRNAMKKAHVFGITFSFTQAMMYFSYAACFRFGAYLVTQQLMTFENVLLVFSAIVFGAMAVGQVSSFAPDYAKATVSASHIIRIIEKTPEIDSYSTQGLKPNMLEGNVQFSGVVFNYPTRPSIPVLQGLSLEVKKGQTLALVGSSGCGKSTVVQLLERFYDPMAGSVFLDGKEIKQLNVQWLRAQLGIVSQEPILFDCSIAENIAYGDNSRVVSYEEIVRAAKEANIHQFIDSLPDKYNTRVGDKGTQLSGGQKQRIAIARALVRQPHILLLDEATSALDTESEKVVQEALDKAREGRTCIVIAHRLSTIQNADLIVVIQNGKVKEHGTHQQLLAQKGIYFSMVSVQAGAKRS
smiles,measurement,value
CN(C)C(=O)C(CCN1CCC(O)(c2ccc(Cl)cc2)CC1)(c1ccccc1)c1ccccc1.Cl [LOPERAMIDE HYDROCHLORIDE],"efflux ratio at 2 h, 1 µM",9
